Measurements reported in US11066412B2, “Substituted pyrrolo[2,1-a]phthalazines and benzo[g]pyrrolo[2,1-a]phthalazines for the treatment of cancer” (Academia Sinica, priority 2017, dated 2021).

Assays:
[1] = solubility / hydrophobicity (statement); type: physicochemical
SCLC H211 xenografts = test: tumor growth in xenograft-bearing nude mice, combination with cisplatin; type: in vivo; conditions: co-administration of BO-2768 (20 mg/kg, 5 days + 1 day rest, two cycles) and cisplatin (2 or 4 mg/kg every 4 days ×3); FIG. 14, panel A
Experimental: Athymic nude mice bearing the nu/nu gene were obtained from the National Laboratory Animal Center (Taipei, Taiwan). Male nude mice (6 weeks or older weighing 20-24 g or more) were used for all human tumor xenografts. The tested compounds were intravenously administered through tail vein. Tumor volume was determined by measuring the length x width x height (or width) with calipers. The vehicle used for the tested compounds was normal saline (0.9% NaCl isotonic solution). For tumor-bearing nude mice during the course of the experiment, the % body weight changes refer to: (the total weight on reading day/the total weight on day treatment started)×100.
In this example, the synergistic effect of BO-2768 and cisplatin on the suppression of tumor size and the body weight changes of the test subjects were investigated. To this purpose, an aliquot of H211 cells (5×10^6, 50 μl ) were implanted into nude mice subcutaneously. Then, the test animals were treated with BO-2768 or cisplatin, alone or in combination. BI-2768 (dissolved in 20% Kolliphor® HS 15, 10% Tween 80, 10% PEG400, […], and 40% distilled water) was administered at the dose of 20 mg/kg in […] for 5 consecutive days, then rest for one day; and the cycle was repeated once (i.e., a total of two cycles). Cisplatin was given at the dose of 2 or 4 mg/kg once every 4 days, for 3 times. Results are depicted in FIG. 14.

| Compound | solubility [1] | tumor size, combination effect (SCLC H211 xenografts) |
| --- | --- | --- |
| Cc1c(CO)c(CO)c2c3ccccc3c(N3CCC(N4CCCCC4)CC3)nn12 [BO-2590, (6-([1,4′-Bipiperidin]-1′-yl)-3-methylpyrrolo[2,1-α]phthalazine-1,2-diyl)dimethanol] | poor | – |
| Cc1c(CO)c(CO)c2c3cc4ccccc4cc3c(N(C)C)nn12 [BO-2768, (6-(Dimethylamino)-3-methylbenzo[g]pyrrolo[2,1-α]phthalazine-1,2-diyl)dimethanol] | – | synergistic reduction in the tumor size |
